Reference: US11932651B1, “2-benzo-[3,4-B]quinolino-[b,g]indeno[1′,2′:3,4]fluoreno-[1,2-d]oxonine-24-chloro-5,11,16,21-tetraone as an antimicrobial compound” (KING FAISAL UNIVERSITY, priority 2023, dated 2024)

Key:
[1] = system: Staphylococcus aureus; test: Antimicrobial screening by agar dilution, Staphylococcus aureus; type: cell-based; conditions: after 10, 20, 40 and 60 minutes at all dilutions 1:100, 1:200, 1:400, 1:800
Protocol: (§1) The antibacterial properties of the synthesized compound 2-benzo-[3,4-b]quinolino-[b,g]indeno[1′,2′:3,4]fluoreno-[1,2-d]oxonine-24-chloro-5,11,16,21-tetraone were studied by the method of agar dilution. Test solutions of each compound was prepared in concentration of 1% using dimethylformamide as a solvent then they are diluted in physiological solution to obtain the final experimental dilutions 1:100, 1:200, 1:400, 1:800. The effect of these substances are compared with furacillin in a controllable study. The testing microbes used were gram positive bacteria Staphylococcus aureus, gram negative bacteria Pseudomonas aeruginosa and Escherichia coli and Candida albicans fungus. The experiments used for this survey were meat-pentonlu agar (EPA) for cultivation of bacteria and Saburo environment for the fungus. Each experiment used 1 mL of test solution on each plate […]. Two drops of emulsified with microbes feel were added. All experimental samples were taken from the agar after 10, 20, 40, 60 minutes in the environment on the basis of Patrk planted. The bacteria were cultivated at a temperature of 37° C. for 1 day and the mushroom was kept in a thermostat for […] at a temperature of 28° C. Then results were checked.

[2] = system: Pseudomonas aeruginosa; test: Antimicrobial screening by agar dilution, Pseudomonas aeruginosa; type: cell-based; conditions: after 10, 20, 40 and 60 minutes at all dilutions 1:100, 1:200, 1:400, 1:800
Protocol: as §1

[3] = system: Candida albicans; test: Antimicrobial screening by agar dilution, Candida albicans; type: cell-based; conditions: after 10, 20, 40 and 60 minutes at all dilutions 1:100, 1:200, 1:400, 1:800
Protocol: as §1

[4] = system: Escherichia coli; test: Antimicrobial screening by agar dilution, Escherichia coli; type: cell-based; conditions: after 10, 20, 40 and 60 minutes at all dilutions 1:100, 1:200, 1:400, 1:800
Protocol: as §1

melting point: 241 °C
Structure (SMILES): O=C1Oc2nc3ccc(Cl)cc3cc2-c2c(c3c4ccccc4c(=O)c3c3c2c(=O)c2ccccc23)C(=O)c2ccccc21 [2-benzo-[3,4-b]quinolino-[b,g]indeno[1′,2′:3,4]fluoreno-[1,2-d]oxonine-24-chloro-5,11,16,21-tetraone]
inhibition activity, Staphylococcus aureus [1]: highest inhibition activity
inhibition activity, Pseudomonas aeruginosa [2]: highest inhibition activity
inhibition activity, Candida albicans [3]: highest inhibition activity
inhibition activity, Escherichia coli [4]: highest inhibition activity
